Measurements reported in the supplement of paper PMC10307832.

Compound: CN1CCN(c2ccc3nc(-c4c(N)c5c(F)cccc5[nH]c4=O)[nH]c3c2)CC1 [Dovitinib]
Assay: relative viability (nuclei count vs DMSO), 5 days (fraction); higher = more cells survive
In short: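 Lung cancer cell lines in 1536-well plates were kept overnight at 37 °C, then pinned with five library-drug doses (not always all listed) spaced by √10 on vehicle-anchored plates. After 5 days without medium change, cells were fixed, permeabilised and Hoechst-stained in one step, imaged at 4×, and nuclei were counted with MetaXpress. Viability is treated-well nuclei divided by vehicle-well nuclei, taken as the median over plates. Plates passed only with control CV below 25% and at least one doubling.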

| Cell Line | relative viability (0.02 µM) | relative viability (0.06325 µM) | relative viability (0.2 µM) | relative viability (0.6325 µM) | relative viability (2 µM) |
| --- | --- | --- | --- | --- | --- |
| COR-L 105 | 0.924 | 0.961 | 1.11 | 0.97 | 0.981 |
| LK-2 | 0.944 | 0.974 | 0.895 | 0.975 | 0.847 |
| NCI-H727 | 1.1 | 0.782 | 0.968 | 0.989 | 0.921 |
| RERF-LC-KJ | 0.964 | 1.01 | 1.07 | 0.95 | 0.954 |
| NCI-H2023 | 0.94 | 0.969 | 1.11 | 1 | 0.926 |
| NCI-H322M | 0.885 | 0.926 | 0.918 | 0.977 | 0.97 |
| NCI-H1666 | 1.2 | 1.09 | 1.09 | 1.01 | 1.01 |
| NCI-H1648 | 0.914 | 0.805 | 1.12 | 0.908 | 0.789 |
| NCI-H2087 | 0.981 | 0.982 | 1.05 | 1.18 | 1.05 |
| LU99A | 0.911 | 0.944 | 0.971 | 0.97 | 1.04 |
| HCC-366 | 0.989 | 0.978 | 0.993 | 0.973 | 0.982 |
| EKVX | 1.01 | 0.983 | 1.05 | 1.04 | 1.01 |
| NCI-H522 | 1 | 1.09 | 1.22 | 1.03 | 0.924 |
| NCI-H1755 | 1.04 | 1.02 | 1.01 | 0.998 | 1.02 |
| NCI-H647 | 0.957 | 0.991 | 1.04 | 0.991 | 0.949 |
| LC-2-ad | 0.977 | 0.966 | 0.965 | 0.983 | 0.98 |
| NCI-H1793 | 1.07 | 0.977 | 1.02 | 1.09 | 1.01 |
| HCC-827 | 1.05 | 1.01 | 1.05 | 1.1 | 1.03 |
| HCC-78 | 1.02 | 0.809 | 1.05 | 1.04 | 0.952 |

| Cell Line | relative viability (0.02 µM) | relative viability (0.06325 µM) | relative viability (0.2 µM) | relative viability (0.6325 µM) | relative viability (2 µM) |
| --- | --- | --- | --- | --- | --- |
| NCI-H2085 | 1 | 1.01 | 1.03 | 1.02 | 0.985 |
| PC-14 | 1 | 1.01 | 1.03 | 1.03 | 1.04 |
| NCI-H2342 | 1.12 | 0.992 | 1.1 | 1.04 | 1.01 |
| A-427 | 0.918 | 0.901 | 1.06 | 1.06 | 1.05 |
| H3255 | 0.955 | 1.02 | 0.997 | 1.01 | 1.06 |
| HCC-44 | 0.979 | 0.98 | 0.991 | 1 | 1.03 |
| NCI-H1734 | 0.928 | 0.974 | 0.934 | 0.963 | 0.984 |
| NCI-H2228 | 0.832 | 1.17 | 1.16 | 0.966 | 0.962 |
| ABC-1 | 0.847 | 0.953 | 1.08 | 1.1 | 0.924 |
| COR-L23 | 0.967 | 1.1 | 0.987 | 1.06 | 1.04 |
| NCI-H661 | 0.988 | 0.993 | 1.04 | 1.03 | 1.06 |
| NCI-H1993 | 1.21 | 0.863 | 1 | 0.988 | 1.07 |
| NCI-H1437 | 0.973 | 1.03 | 0.971 | 1.04 | 1.02 |
| UMC-11 | 0.959 | 0.941 | 0.992 | 0.981 | 0.939 |
| 201T | 0.895 | 0.954 | 0.991 | 1.02 | 0.989 |
| NCI-H358 | 0.9 | 0.995 | 0.918 | 0.989 | 0.907 |
| ChaGo-K-1 | 0.961 | 1.06 | 0.97 | 1.02 | 0.995 |
| NCI-H1650 | 0.949 | 0.998 | 0.987 | 0.93 | 1.05 |
| LOU-NH91 | 1.02 | 0.945 | 0.939 | 1.07 | 0.984 |
